This note sets out measurements from ChEMBL document CHEMBL6177939, “The role of silicon in drug discovery: a review” (RSC Med Chem, 2024).

Structures are written as SMILES. ≈ marks a conversion by molar mass, not a printed value. Some results are limits rather than exact numbers.

The test system of data set [1] is Giardia intestinalis. Kind of data set: Antiparasitic activity against Giardia intestinalis Portland 1 assessed as reduction in parasite growth incubated for 48 hrs by MTT assay. The class given is functional, organism-based. Conditions: Giardia duodenalis, Portland 1, 48 h.
Data set [2] deals with Entamoeba histolytica. Description: Antiparasitic activity against Entamoeba histolytica HM-1:IMSS assessed as reduction in parasite growth incubated for 48 hrs by MTT assay. It counts as functional, organism-based.
Data set [3] deals with Aedes aegypti. Kind of data set: […] activity against Aedes aegypti assessed as protection time at 0.5 microg/cm. It counts as functional.
Data set [4] deals with Sigma non-opioid intracellular receptor 1 (Cavia porcellus, UniProt Q60492). Description: Binding affinity to guinea pig sigma 1 receptor assessed as inhibition constant.
For data set [5], the system named is Escherichia coli. Kind of data set: Antibacterial activity against Escherichia coli assessed as reduction in bacterial growth incubated for 12 hrs by broth micr-dilution method. The class given is functional.
In data set [6] the test system is Bacillus subtilis. Description: Antibacterial activity against Bacillus subtilis assessed as reduction in bacterial growth incubated for 12 hrs by broth micr-dilution method. The class given is functional.
Data set [7] deals with Staphylococcus aureus. Description: Antibacterial activity against Staphylococcus aureus assessed as reduction in bacterial growth incubated for 12 hrs by broth micr-dilution method. It counts as functional.
The test system of data set [8] is Vibrio cholerae. Description: Antibacterial activity against Vibrio cholerae assessed as inhibition of bacterial growth. It counts as functional.
Data set [9] deals with HCT-116. Kind of data set: Antiproliferative activity against human HCT-116 cells assessed as reduction in cell viability incubated for 72 hrs by MTT assay. It counts as functional, cell-based. Conditions: HCT-116, 72 h. (Tetrazolium dyes change colour on reduction, which living cells bring about.)
Data set [10] deals with BJAB. Kind of data set: Cytotoxicity against human BJAB cells assessed as lethal dose measured after 48 hrs. The class given is functional. The settings on record: read-out: LD50 (the source's name).
For data set [11], the system named is Staphylococcus aureus. Description: Antibacterial activity against Staphylococcus aureus ATCC 25923 assessed as reduction in cell growth incubated for 18 hrs by two-fold serial dilution method. It counts as functional.
For data set [12], the system named is Acinetobacter baumannii. Description: Antibacterial activity against Acinetobacter baumannii ATCC 19606 assessed as reduction in cell growth incubated for 18 hrs by two-fold serial dilution method. The class given is functional.
Data set [13] deals with Pseudomonas aeruginosa. Kind of data set: Antibacterial activity against Pseudomonas aeruginosa ATCC 27853 assessed as reduction in cell growth incubated for 18 hrs by two-fold serial dilution method. It counts as functional.
Data set [14] deals with Escherichia coli. Kind of data set: Antibacterial activity against Escherichia coli ATCC 25922 assessed as reduction in cell growth incubated for 18 hrs by two-fold serial dilution method. The class given is functional.
Data set [15] has as its system MCF7. Kind of data set: Cytotoxicity against human MCF7 cells assessed as reduction in cell viability by XTT assay. The class given is functional, cell-based.
Data set [16] concerns HepG2. Kind of data set: Cytotoxicity against human HepG2 cells assessed as reduction in cell viability by XTT assay. It counts as functional, cell-based.
Data set [17] deals with Aspergillus niger. Kind of data set: Antifungal activity against Aspergillus niger ATCC 16888 assessed as reduction in fungal growth incubated for 24 hrs by broth micro-dilution method. It counts as functional. (Dilution methods test growth across graded concentrations, often in twofold steps.)
The subject of data set [18] is Fusarium solani. Description: Antifungal activity against Fusarium solani ATCC 20327 assessed as reduction in fungal growth incubated for 24 hrs by CLSI micro-dilution method. The class given is functional.
In data set [19] the test system is Penicillium chrysogenum. Description: Antifungal activity against Penicillium chrysogenum ATCC 11709 assessed as reduction in fungal growth incubated for 24 hrs by CLSI micro-dilution method. It counts as functional.
In data set [20] the test system is Bacillus sp. Kind of data set: Antibacterial activity against Bacillus sp. ATCC 19986 assessed as reduction in bacterial growth incubated for 24 hrs by CLSI micro-dilution method. The class given is functional. Conditions: Bacillus sp. (in: firmicutes).
Data set [21] has as its system Pseudomonas aeruginosa. Kind of data set: Antibacterial activity against Pseudomonas aeruginosa ATCC 27853 assessed as reduction in bacterial growth incubated for 24 hrs by CLSI micro-dilution method. It counts as functional.
Data set [22] in a line: Acute toxicity in po dosed mouse assessed as lethal dose. It counts as organism-based. The settings on record: in vivo.
The subject of data set [23] is Mythimna separata. Kind of data set: Toxicity in Mythimna separata assessed as lethal dose. It counts as organism-based.
Data set [24] concerns HepG2. Description: Antiproliferative activity against human HepG2 cells. The class given is functional, cell-based.
The test system of data set [25] is HT-1080. Kind of data set: Cytotoxicity against human HT-1080 cells assessed as reduction in cell growth by measuring lethal concentration for 72 hrs by MTT assay. It counts as functional.
The test system of data set [26] is MG-22A. Description: Cytotoxicity against mouse MG-22A cells assessed as reduction in cell growth by measuring lethal concentration for 72 hrs by MTT assay. The class given is functional.
For data set [27], the system named is NIH3T3. Kind of data set: Cytotoxicity against mouse NIH3T3 cells assessed as reduction in cell growth by measuring lethal concentration for 72 hrs by MTT assay. The settings on record: nih3t3, 72 h. The class given is toxicity, cell-based.
Data set [28] deals with Angiotensin-converting enzyme (Homo sapiens, UniProt P12821). Description: Inhibition of ACE (unknown origin) using N-[3-(2-furyl)-acryloyl]- L -phenylalanylglycylglycin as substrate incubated for 5 mins.
The test system of data set [29] is MDA-MB-435. Kind of data set: Cytotoxicity against human MDA-MB-435 cells assessed as reduction in cell viability incubated for 48 hrs by SRB assay. The class given is functional, cell-based. Conditions: MDA-MB-435, 48 h.
Data set [30] deals with P388. Kind of data set: Antiproliferative activity against mouse P388 cells. The class given is functional, cell-based.

Angiotensin-converting enzyme, sequence (P12821 whole entry): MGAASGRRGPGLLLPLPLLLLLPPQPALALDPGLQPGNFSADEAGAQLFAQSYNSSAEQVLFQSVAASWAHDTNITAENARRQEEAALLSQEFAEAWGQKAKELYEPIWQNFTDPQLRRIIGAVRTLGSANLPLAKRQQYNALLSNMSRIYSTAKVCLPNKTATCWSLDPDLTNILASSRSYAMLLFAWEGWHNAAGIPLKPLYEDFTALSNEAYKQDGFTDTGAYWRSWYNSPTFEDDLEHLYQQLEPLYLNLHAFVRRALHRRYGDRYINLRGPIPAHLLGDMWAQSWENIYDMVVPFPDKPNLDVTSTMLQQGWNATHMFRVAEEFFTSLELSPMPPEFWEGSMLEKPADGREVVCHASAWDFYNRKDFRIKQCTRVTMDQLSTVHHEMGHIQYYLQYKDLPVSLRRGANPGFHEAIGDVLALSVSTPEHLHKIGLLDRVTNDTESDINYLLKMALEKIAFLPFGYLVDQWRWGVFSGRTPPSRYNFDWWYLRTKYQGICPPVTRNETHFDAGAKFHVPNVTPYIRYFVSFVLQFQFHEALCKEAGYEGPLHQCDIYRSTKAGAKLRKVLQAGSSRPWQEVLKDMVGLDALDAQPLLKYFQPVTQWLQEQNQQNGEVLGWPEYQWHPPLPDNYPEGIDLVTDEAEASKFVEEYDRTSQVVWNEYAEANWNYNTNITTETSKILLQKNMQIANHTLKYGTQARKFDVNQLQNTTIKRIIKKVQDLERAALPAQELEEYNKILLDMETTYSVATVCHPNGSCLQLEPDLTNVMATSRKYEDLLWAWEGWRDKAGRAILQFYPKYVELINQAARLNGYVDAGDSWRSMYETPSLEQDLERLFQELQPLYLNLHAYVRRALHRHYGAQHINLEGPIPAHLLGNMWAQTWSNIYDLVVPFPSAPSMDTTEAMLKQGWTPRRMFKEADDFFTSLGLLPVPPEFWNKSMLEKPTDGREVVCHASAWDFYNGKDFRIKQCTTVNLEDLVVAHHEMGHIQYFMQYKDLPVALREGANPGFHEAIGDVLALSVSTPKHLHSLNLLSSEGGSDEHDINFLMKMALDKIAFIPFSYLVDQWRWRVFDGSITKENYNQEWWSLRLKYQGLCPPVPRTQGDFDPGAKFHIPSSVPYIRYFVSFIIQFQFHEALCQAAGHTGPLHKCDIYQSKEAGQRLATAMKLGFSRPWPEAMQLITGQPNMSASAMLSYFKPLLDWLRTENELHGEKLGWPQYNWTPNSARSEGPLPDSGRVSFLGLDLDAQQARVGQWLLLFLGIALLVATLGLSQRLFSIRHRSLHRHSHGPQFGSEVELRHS
Sigma non-opioid intracellular receptor 1, sequence (Q60492 whole entry): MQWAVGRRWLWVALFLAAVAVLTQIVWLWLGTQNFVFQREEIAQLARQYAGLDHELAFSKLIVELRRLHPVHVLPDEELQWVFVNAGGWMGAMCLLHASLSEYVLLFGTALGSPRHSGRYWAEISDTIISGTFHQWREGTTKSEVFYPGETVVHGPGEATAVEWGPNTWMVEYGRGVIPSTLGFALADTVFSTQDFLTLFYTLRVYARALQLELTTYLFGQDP

For `CC1C[N+]23CC(C)O[Si-]2(CCCNCC/N=C/c2ccc4ccc5cccc6ccc2c4c56)(O1)OC(C)C3` (configuration not stated), the IC50 in data set [1] was found to be 44.6 µM; in [2], 1.14 µM. `CC1(C)CCN(C(=O)C2=CCCCC2)CC1`: the Time in [3] turned out to be 520 min. For `COc1ccc(CN2CC[Si]3(CCCc4ccccc43)CC2)cc1`, the Ki in data set [4] was 0.3 µM. With `Cc1cc(=O)n(Cc2cn(CCC[Si-]345OCC[N+]3(CCO4)CCO5)nn2)c(=O)n1Cc1cn(CCC[Si-]234OCC[N+]2(CCO3)CCO4)nn1` (configuration not stated), the MIC50 in data set [5], in data set [6], in data set [7] and in data set [8] was 180 ng/mL (≈ 0.25 µM) in each case. As for `CC[Si](CC)(CC)OC1OC(=O)C(Br)=C1Br` (configuration not stated), the IC50 in [9] was determined as 1.6 µM. For `O=c1c(F)cn(Cc2cn(CCC[Si-]345OCC[N+]3(CCO4)CCO5)nn2)c(=O)n1Cc1cn(CCC[Si-]234OCC[N+]2(CCO3)CCO4)nn1` (configuration not stated), the MIC50 in [5], in data set [6], in data set [7] and in [8] was 180 ng/mL (≈ 0.249 µM) throughout. On to `CC(C)(C)[Si](C)(C)OC[C@H]1C[C@@H](n2cc(Br)c(=O)[nH]c2=O)C=C1CO`, for which the CC50 in data set [10] is 46 µM.

Take `CC1C[N+]23CC(C)O[Si-]2(CCCN2C(=O)c4ccccc4C2=O)(O1)OC(C)C3` (configuration not stated): the minimal inhibitory concentration (MIC) in data set [11], in data set [12], in data set [13] and in data set [14] was 200 ng/mL (≈ 0.494 µM) throughout. Turning to `Nc1ccc(O)c(/C=N/CCC[Si-]234OCC[N+]2(CCO3)CCO4)c1` (configuration not stated), the IC50 in data set [15] was 65000 ng/mL (≈ 185 µM); in data set [16], 150000 ng/mL (≈ 427 µM). Also, the MIC in data set [17], in data set [18], in [19], in [20] and in data set [21] was 1200 ng/mL (≈ 3.41 µM) throughout. For `CCC[Si](C)(COC(N)=O)COC(N)=O`, the 50% lethal dose (LD50) in data set [22] is greater than 1000 mg/kg.

Regarding `C(=N\CCNCCC[Si-]123OCC[N+]1(CCO2)CCO3)/c1ccc2ccc3cccc4ccc1c2c34` (configuration not stated), the IC50 in data set [1] turned out to be 0.56 µM; in data set [2], 56.9 µM. Regarding `C[Si](C)(C)c1cc(C(F)(C(F)(F)F)C(F)(F)F)cc(Br)c1NC(=O)c1cccc(NC(=O)c2ccccc2)c1`, the 50% lethal concentration (LC50) in data set [23] amounted to 2000 ng/mL (≈ 3.15 µM).

For the compound `COc1ccc([Si](C)(C)[C@@H]2[C@H](CC(=O)N3CCC[C@H]3CO)O[C@@]3(C(=O)N(Cc4cccc(I)c4)c4ccccc43)[C@@H]2C)cc1`, the EC50 in data set [24] was found to be 16.6 µM. As to `CCCCCCCCCCOCC[N+]1(CCC[Si](C)(C)C)CCc2ccccc2C1.[I-]` (configuration not stated), the 50% lethal concentration (LC50) in [25], in data set [26] and in data set [27] was 100 ng/mL throughout. Regarding `c1ccc(CCN2CC[Si]3(CCCc4ccccc43)CC2)cc1`, the inhibitory constant (Ki) in data set [4] turned out to be 0.3 µM. The compound `CC(C)CC(NC(=O)c1ccccc1)[Si](C)(O)CC(C)C(=O)N1CCC[C@H]1C(=O)O` (mixture of isomers) had a half-maximal inhibitory concentration (IC50) in [28] of 0.014 µM.

Turning to `CC(C)CC(NC(=O)c1ccccc1)[Si](O)(O)CC(C)C(=O)N1CCC[C@H]1C(=O)O` (mixture of isomers), it took 3.04 µM to reach half-maximal inhibition in [28] (IC50).

Consider `CC[C@@]1(O)C(=O)OCc2c1cc1n(c2=O)Cc2cc3ccccc3nc2-1` [CAMPTOTHECIN], for which the 50% inhibitory concentration (IC50) in data set [29] was found to be 0.015 µM.

On to `CCN(CC)C(=O)c1cccc(C)c1` [DIETHYLTOLUAMIDE], for which the Time in data set [3] was determined as 616 min. `CCCC(C)(COC(N)=O)COC(N)=O` [MEPROBAMATE]: the median lethal dose (LD50) in data set [22] amounted to 700 mg/kg.

As to `O=C1OC(O)C(Br)=C1Br` (configuration not stated) [MUCOBROMIC ACID], in data set [9], the IC50 was found to be 1.3 µM. For the compound `C=C1C[C@](OC)([C@H](O)C(=O)N[C@H]2OCO[C@H]3[C@@H]2O[C@H](C[C@H](O)CO)C(C)(C)[C@@H]3OC)O[C@H](C)[C@@H]1C` [MYCALAMIDE A], the concentration for half-maximal inhibition (IC50) in data set [30] turned out to be 0.1 ng/mL (≈ 0.000199 µM). Take `C=C1C[C@](OC)([C@H](O)C(=O)N[C@H]2OCO[C@H]3[C@@H]2O[C@H](C[C@@H](CO)OC)C(C)(C)[C@@H]3OC)O[C@H](C)[C@@H]1C` [MYCALAMIDE B]: the half-maximal inhibitory concentration (IC50) in data set [30] was determined as 0.1 ng/mL (≈ 0.000193 µM).

As a reminder, the IC50 is the concentration that gives 50% inhibition. The Ki is the dissociation constant of the complex between target and ligand, obtained from inhibition or displacement. The MIC50 is an inhibitory concentration at the 50% level, which refers to growth in some studies and to a panel of isolates in others. In general, MIC refers to the smallest concentration in the dilution series that meets the test's criterion for growth inhibition. As usually defined, the LD50 is the dose expected to kill half of the subjects tested. In general, LC50 refers to the concentration that kills 50% of the test population. As a reminder, the EC50 is the concentration that produces a half-maximal response. Read a low EC50 as a more potent agent.
